Source: PMC12310023 (PLOS Neglected Tropical Diseases, 2025)

System: NLuc-expressing C. parvum
Assay: NLuc C. parvum IFNγ-KO mouse infection model, oocyst shedding
Format: in vivo

## CC(C)(CO)Cn1nc(-c2ccc3cc(OC4CC4)ccc3c2)c(C(N)=O)c1N [compound 1708]
8 mg/kg QD x3, group I, Day 6, Cp Mouse Efficacy 1
  RLU Raw: 754480 RLU
8 mg/kg QD x3, group I, Day 7, Cp Mouse Efficacy 1
  RLU Raw: 2842576 RLU
8 mg/kg QD x3, group I, Day 8, Cp Mouse Efficacy 1
  RLU Raw: 17367584 RLU
8 mg/kg QD x3, group I, Day 9, Cp Mouse Efficacy 1
  RLU Raw: 4938000 RLU
8 mg/kg QD x3, group I, Day 10, Cp Mouse Efficacy 1
  RLU Raw: 9525504 RLU
8 mg/kg QD x3, group I, Day 13, Cp Mouse Efficacy 1
  RLU Raw: 2717520 RLU
8 mg/kg QD x3, group I, Day 15, Cp Mouse Efficacy 1
  RLU Raw: 2626944 RLU
8 mg/kg QD x3, group I, Day 17, Cp Mouse Efficacy 1
  RLU Raw: 5999920 RLU
8 mg/kg QD x3, group I, Day 20, Cp Mouse Efficacy 1
  RLU Raw: 14563168 RLU
8 mg/kg QD x3, group I, day 6 p.i., Cp Mouse Efficacy 1
  RLU standardized by fecal weight: 118816 RLU
8 mg/kg QD x3, group I, day 7 p.i., Cp Mouse Efficacy 1
  RLU standardized by fecal weight: 653466 RLU
8 mg/kg QD x3, group I, day 8 p.i., Cp Mouse Efficacy 1
  RLU standardized by fecal weight: 4135139 RLU
8 mg/kg QD x3, group I, day 9 p.i., Cp Mouse Efficacy 1
  RLU standardized by fecal weight: 1371667 RLU
8 mg/kg QD x3, group I, day 10 p.i., Cp Mouse Efficacy 1
  RLU standardized by fecal weight: 1763982 RLU
8 mg/kg QD x3, group I, day 13 p.i., Cp Mouse Efficacy 1
  RLU standardized by fecal weight: 414889 RLU
8 mg/kg QD x3, group I, day 15 p.i., Cp Mouse Efficacy 1
  RLU standardized by fecal weight: 314604 RLU
8 mg/kg QD x3, group I, day 17 p.i., Cp Mouse Efficacy 1
  RLU standardized by fecal weight: 909079 RLU
8 mg/kg QD x3, group I, day 20 p.i., Cp Mouse Efficacy 1
  RLU standardized by fecal weight: 1879118 RLU
15 mg/kg QD x3, group H, Day 6, Cp Mouse Efficacy 1
  RLU Raw: 464960 RLU
15 mg/kg QD x3, group H, Day 7, Cp Mouse Efficacy 1
  RLU Raw: 131248 RLU
15 mg/kg QD x3, group H, Day 8, Cp Mouse Efficacy 1
  RLU Raw: 447488 RLU
15 mg/kg QD x3, group H, Day 9, Cp Mouse Efficacy 1
  RLU Raw: 45888 RLU
15 mg/kg QD x3, group H, Day 10, Cp Mouse Efficacy 1
  RLU Raw: 5216 RLU
15 mg/kg QD x3, group H, Day 13, Cp Mouse Efficacy 1
  RLU Raw: 1120 RLU
15 mg/kg QD x3, group H, Day 15, Cp Mouse Efficacy 1
  RLU Raw: 6784 RLU
15 mg/kg QD x3, group H, Day 17, Cp Mouse Efficacy 1
  RLU Raw: 944 RLU
15 mg/kg QD x3, group H, Day 20, Cp Mouse Efficacy 1
  RLU Raw: 848 RLU
15 mg/kg QD x3, group H, day 6 p.i., Cp Mouse Efficacy 1
  RLU standardized by fecal weight: 86104 RLU
15 mg/kg QD x3, group H, day 7 p.i., Cp Mouse Efficacy 1
  RLU standardized by fecal weight: 18617 RLU
15 mg/kg QD x3, group H, day 8 p.i., Cp Mouse Efficacy 1
  RLU standardized by fecal weight: 49446 RLU
15 mg/kg QD x3, group H, day 9 p.i., Cp Mouse Efficacy 1
  RLU standardized by fecal weight: 4543 RLU
15 mg/kg QD x3, group H, day 10 p.i., Cp Mouse Efficacy 1
  RLU standardized by fecal weight: 1391 RLU
15 mg/kg QD x3, group H, day 13 p.i., Cp Mouse Efficacy 1
  RLU standardized by fecal weight: 89 RLU
15 mg/kg QD x3, group H, day 15 p.i., Cp Mouse Efficacy 1
  RLU standardized by fecal weight: 665 RLU
15 mg/kg QD x3, group H, day 17 p.i., Cp Mouse Efficacy 1
  RLU standardized by fecal weight: 115 RLU
15 mg/kg QD x3, group H, day 20 p.i., Cp Mouse Efficacy 1
  RLU standardized by fecal weight: 86 RLU
15 mg/kg x 1 days, group G, Day 6, Cp Mouse Efficacy 2
  RLU Raw: 267600 RLU
15 mg/kg x 1 days, group G, Day 7, Cp Mouse Efficacy 2
  RLU Raw: 185696 RLU
15 mg/kg x 1 days, group G, Day 8, Cp Mouse Efficacy 2
  RLU Raw: 380816 RLU
15 mg/kg x 1 days, group G, Day 9, Cp Mouse Efficacy 2
  RLU Raw: 630928 RLU
15 mg/kg x 1 days, group G, Day 10, Cp Mouse Efficacy 2
  RLU Raw: 2410000 RLU
15 mg/kg x 1 days, group G, Day 13, Cp Mouse Efficacy 2
  RLU Raw: 338704 RLU
15 mg/kg x 1 days, group G, Day 15, Cp Mouse Efficacy 2
  RLU Raw: 51520 RLU
15 mg/kg x 1 days, group G, Day 17, Cp Mouse Efficacy 2
  RLU Raw: 66336 RLU
15 mg/kg x 1 days, group G, Day 20, Cp Mouse Efficacy 2
  RLU Raw: 43392 RLU
15 mg/kg x 1 days, group G, day 6 p.i., Cp Mouse Efficacy 2
  RLU standardized by fecal weight: 18713 RLU
15 mg/kg x 1 days, group G, day 7 p.i., Cp Mouse Efficacy 2
  RLU standardized by fecal weight: 21344 RLU
15 mg/kg x 1 days, group G, day 8 p.i., Cp Mouse Efficacy 2
  RLU standardized by fecal weight: 110381 RLU
15 mg/kg x 1 days, group G, day 9 p.i., Cp Mouse Efficacy 2
  RLU standardized by fecal weight: 122510 RLU
15 mg/kg x 1 days, group G, day 10 p.i., Cp Mouse Efficacy 2
  RLU standardized by fecal weight: 529670 RLU
15 mg/kg x 1 days, group G, day 13 p.i., Cp Mouse Efficacy 2
  RLU standardized by fecal weight: 94084 RLU
15 mg/kg x 1 days, group G, day 15 p.i., Cp Mouse Efficacy 2
  RLU standardized by fecal weight: 6869 RLU
15 mg/kg x 1 days, group G, day 17 p.i., Cp Mouse Efficacy 2
  RLU standardized by fecal weight: 20102 RLU
15 mg/kg x 1 days, group G, day 20 p.i., Cp Mouse Efficacy 2
  RLU standardized by fecal weight: 10091 RLU
15 mg/kg x 2 days, group H, Day 6, Cp Mouse Efficacy 2
  RLU Raw: 505536 RLU
15 mg/kg x 2 days, group H, Day 7, Cp Mouse Efficacy 2
  RLU Raw: 606112 RLU
15 mg/kg x 2 days, group H, Day 8, Cp Mouse Efficacy 2
  RLU Raw: 78272 RLU
15 mg/kg x 2 days, group H, Day 9, Cp Mouse Efficacy 2
  RLU Raw: 75472 RLU
15 mg/kg x 2 days, group H, Day 10, Cp Mouse Efficacy 2
  RLU Raw: 77152 RLU
15 mg/kg x 2 days, group H, Day 13, Cp Mouse Efficacy 2
  RLU Raw: 20208 RLU
15 mg/kg x 2 days, group H, Day 15, Cp Mouse Efficacy 2
  RLU Raw: 12176 RLU
15 mg/kg x 2 days, group H, Day 17, Cp Mouse Efficacy 2
  RLU Raw: 9280 RLU
15 mg/kg x 2 days, group H, Day 20, Cp Mouse Efficacy 2
  RLU Raw: 10848 RLU
15 mg/kg x 2 days, group H, day 6 p.i., Cp Mouse Efficacy 2
  RLU standardized by fecal weight: 118950 RLU
15 mg/kg x 2 days, group H, day 7 p.i., Cp Mouse Efficacy 2
  RLU standardized by fecal weight: 269383 RLU
15 mg/kg x 2 days, group H, day 8 p.i., Cp Mouse Efficacy 2
  RLU standardized by fecal weight: 14630 RLU
15 mg/kg x 2 days, group H, day 9 p.i., Cp Mouse Efficacy 2
  RLU standardized by fecal weight: 18635 RLU
15 mg/kg x 2 days, group H, day 10 p.i., Cp Mouse Efficacy 2
  RLU standardized by fecal weight: 18370 RLU
15 mg/kg x 2 days, group H, day 13 p.i., Cp Mouse Efficacy 2
  RLU standardized by fecal weight: 1962 RLU
15 mg/kg x 2 days, group H, day 15 p.i., Cp Mouse Efficacy 2
  RLU standardized by fecal weight: 2387 RLU
15 mg/kg x 2 days, group H, day 17 p.i., Cp Mouse Efficacy 2
  RLU standardized by fecal weight: 1160 RLU
15 mg/kg x 2 days, group H, day 20 p.i., Cp Mouse Efficacy 2
  RLU standardized by fecal weight: 4094 RLU
15 mg/kg x 3 days, group I, Day 6, Cp Mouse Efficacy 2
  RLU Raw: 932240 RLU
15 mg/kg x 3 days, group I, Day 7, Cp Mouse Efficacy 2
  RLU Raw: 627218 RLU
15 mg/kg x 3 days, group I, Day 8, Cp Mouse Efficacy 2
  RLU Raw: 396768 RLU
15 mg/kg x 3 days, group I, Day 9, Cp Mouse Efficacy 2
  RLU Raw: 37984 RLU
15 mg/kg x 3 days, group I, Day 10, Cp Mouse Efficacy 2
  RLU Raw: 6160 RLU
15 mg/kg x 3 days, group I, Day 13, Cp Mouse Efficacy 2
  RLU Raw: 1280 RLU
15 mg/kg x 3 days, group I, Day 15, Cp Mouse Efficacy 2
  RLU Raw: 656 RLU
15 mg/kg x 3 days, group I, Day 17, Cp Mouse Efficacy 2
  RLU Raw: 496 RLU
15 mg/kg x 3 days, group I, Day 20, Cp Mouse Efficacy 2
  RLU Raw: 864 RLU
